Assay results from ChEMBL document CHEMBL3885881, “DrugMatrix”.

Species on record: Rattus norvegicus
Assay: DrugMatrix - Regimen: Daily Repeat
Type: toxicity, organism-based, Sprague-Dawley
Design: regimen Daily Repeat, gender Male, age 6-8 weeks
Details: in vivo, po, route oral GAVAGE, vehicle .5 % CMC; for CARBON DIOXIDE / CHLORIDE / CHOLESTEROL / CREATINE PHOSPHOKINASE / CREATININE / GLUCOSE / LACTATE DEHYDROGENASE / LIPASE / PHOSPHORUS / POTASSIUM / SODIUM / TOTAL BILIRUBIN / TOTAL PROTEIN / URIC ACID / ALANINE AMINOTRANSFERASE / ALBUMIN / ALKALINE PHOSPHATASE / ASPARTATE AMINOTRANSFERASE / BLOOD UREA NITROGEN: tissue Plasma; for ABSOLUTE BASOPHIL / ABSOLUTE EOSINOPHIL / ABSOLUTE LYMPHOCYTE / ABSOLUTE MONOCYTE / ABSOLUTE SEGMENTED NEUTROPHIL / BASOPHIL / EOSINOPHIL / ERYTHROCYTE COUNT / HEMATOCRIT / HEMOGLOBIN / LEUKOCYTE COUNT / LYMPHOCYTE / MEAN CORPUSCULAR HEMOGLOBIN / MEAN CORPUSCULAR HEMOGLOBIN CONCENTRATION / MEAN CORPUSCULAR VOLUME / MONOCYTE / NEUTROPHIL / NUCLEATED RED BLOOD CELLS / PLATELET COUNT: tissue Blood
[1] = 7 mg/kg, 120 h, dose level Low, time 5 day
[2] = 70 mg/kg, 72 h, dose level High, time 3 day
[3] = 70 mg/kg, 120 h, dose level High, time 5 day
[4] = 140 mg/kg, 72 h, dose level Low, time 3 day

## NC1=NC(=O)C(c2ccccc2)O1 (configuration not stated) [PEMOLINE]
[1]
  CARBON DIOXIDE: 34.67 mmol/L
  CHLORIDE: 103 MEQ/L
  CHOLESTEROL: 67.67 mg/dL
  CREATINE PHOSPHOKINASE: 147.33 u/L
  CREATININE: 0.12 mg/dL
  GLUCOSE: 151.67 mg/dL
  LACTATE DEHYDROGENASE: 92.33 u/L
  LIPASE: 9 u/L
  PHOSPHORUS: 13.57 mg/dL
  POTASSIUM: 6.78 MEQ/L
  SODIUM: 146.93 MEQ/L
  TOTAL BILIRUBIN: 0.17 mg/dL
  TOTAL PROTEIN: 5.77 G/DL
  URIC ACID: 1.33 mg/dL
[2]
  ABSOLUTE BASOPHIL: 0 CELLS/uL
  ABSOLUTE EOSINOPHIL: 0 CELLS/uL
  ABSOLUTE LYMPHOCYTE: 14699.33 CELLS/uL
  ABSOLUTE MONOCYTE: 90.67 CELLS/uL
  ABSOLUTE SEGMENTED NEUTROPHIL: 1243.33 CELLS/uL
  BASOPHIL: 0%
  EOSINOPHIL: 0%
  ERYTHROCYTE COUNT: 5.56 x10E6/uL
  HEMATOCRIT: 35.23%
  HEMOGLOBIN: 14.27 G/DL
  LEUKOCYTE COUNT: 16.03 x10E3/uL
  LYMPHOCYTE: 91.33%
  MEAN CORPUSCULAR HEMOGLOBIN: 25.7 pg
  MEAN CORPUSCULAR HEMOGLOBIN CONCENTRATION: 40.47 G/DL
  MEAN CORPUSCULAR VOLUME: 63.43 fL
  MONOCYTE: 0.67%
  NEUTROPHIL: 8%
  NUCLEATED RED BLOOD CELLS: 0 /100WBC
  PLATELET COUNT: 1042 x10E3/uL
  ALANINE AMINOTRANSFERASE: 48 u/L
  ALBUMIN: 4.17 G/DL
  ALKALINE PHOSPHATASE: 389 u/L
  ASPARTATE AMINOTRANSFERASE: 92.67 u/L
  BLOOD UREA NITROGEN: 15.33 mg/dL
  CARBON DIOXIDE: 33 mmol/L
  CHLORIDE: 100.67 MEQ/L
  CHOLESTEROL: 58.33 mg/dL
  CREATINE PHOSPHOKINASE: 270 u/L
  CREATININE: 0.15 mg/dL
  GLUCOSE: 154 mg/dL
  LACTATE DEHYDROGENASE: 211.33 u/L
  LIPASE: 8.67 u/L
  PHOSPHORUS: 13.6 mg/dL
  POTASSIUM: 6.81 MEQ/L
  SODIUM: 144.87 MEQ/L
  TOTAL BILIRUBIN: 0.1 mg/dL
  TOTAL PROTEIN: 5.8 G/DL
  URIC ACID: 1.6 mg/dL
[3]
  ABSOLUTE BASOPHIL: 0 CELLS/uL
  ABSOLUTE EOSINOPHIL: 0 CELLS/uL
  ABSOLUTE LYMPHOCYTE: 16458 CELLS/uL
  ABSOLUTE MONOCYTE: 255.33 CELLS/uL
  ABSOLUTE SEGMENTED NEUTROPHIL: 886.67 CELLS/uL
  BASOPHIL: 0%
  EOSINOPHIL: 0%
  ERYTHROCYTE COUNT: 5.79 x10E6/uL
  HEMATOCRIT: 36.57%
  HEMOGLOBIN: 14.87 G/DL
  LEUKOCYTE COUNT: 17.6 x10E3/uL
  LYMPHOCYTE: 93%
  MEAN CORPUSCULAR HEMOGLOBIN: 25.7 pg
  MEAN CORPUSCULAR HEMOGLOBIN CONCENTRATION: 40.63 G/DL
  MEAN CORPUSCULAR VOLUME: 63.23 fL
  MONOCYTE: 1.67%
  NEUTROPHIL: 5.33%
  NUCLEATED RED BLOOD CELLS: 0.33 /100WBC
  PLATELET COUNT: 1251.67 x10E3/uL
  ALANINE AMINOTRANSFERASE: 59.67 u/L
  ALBUMIN: 4.33 G/DL
  ALKALINE PHOSPHATASE: 378.67 u/L
  ASPARTATE AMINOTRANSFERASE: 96.33 u/L
  BLOOD UREA NITROGEN: 18.67 mg/dL
  CARBON DIOXIDE: 33.33 mmol/L
  CHLORIDE: 100.33 MEQ/L
  CHOLESTEROL: 64 mg/dL
  CREATINE PHOSPHOKINASE: 276.33 u/L
  CREATININE: 0.23 mg/dL
  GLUCOSE: 139 mg/dL
  LACTATE DEHYDROGENASE: 306.33 u/L
  LIPASE: 10.67 u/L
  PHOSPHORUS: 12.97 mg/dL
  POTASSIUM: 6.82 MEQ/L
  SODIUM: 144.9 MEQ/L
  TOTAL BILIRUBIN: 0.2 mg/dL
  TOTAL PROTEIN: 6.03 G/DL
  URIC ACID: 1.9 mg/dL
[4]
  BASOPHIL: 0%
  EOSINOPHIL: 1%
  ERYTHROCYTE COUNT: 6.27 x10E6/uL
  HEMATOCRIT: 38.3%
  HEMOGLOBIN: 14.3 G/DL
  LEUKOCYTE COUNT: 13.1 x10E3/uL
  LYMPHOCYTE: 92%
  MEAN CORPUSCULAR HEMOGLOBIN: 22.8 pg
  MEAN CORPUSCULAR HEMOGLOBIN CONCENTRATION: 37.3 G/DL
  MEAN CORPUSCULAR VOLUME: 61.1 fL
  MONOCYTE: 1%
  NEUTROPHIL: 6%
  PLATELET COUNT: 1285 x10E3/uL
  ALANINE AMINOTRANSFERASE: 34.5 u/L
  ALBUMIN: 3.25 G/DL
  ALKALINE PHOSPHATASE: 286.5 u/L
  ASPARTATE AMINOTRANSFERASE: 93.5 u/L
  BLOOD UREA NITROGEN: 15.5 mg/dL
  CHLORIDE: 105.5 MEQ/L
  CHOLESTEROL: 58.5 mg/dL
  CREATINE PHOSPHOKINASE: 130 u/L
  CREATININE: 0.75 mg/dL
  GLUCOSE: 137.5 mg/dL
  PHOSPHORUS: 12.65 mg/dL
  POTASSIUM: 7.95 MEQ/L
  SODIUM: 148 MEQ/L
  TOTAL PROTEIN: 5.3 G/DL
